This assay deals with T1, cannabinoid receptor 1 (CB1) (Homo sapiens, UniProt P21554).
T1 construct: gene CNR1
Description: cell-based. Conditions: read-out: Antagonist IC50 RC50. Further details: species or system CHO-K1.

SMILES strings stand for the structures.

T1 sequence (P21554 whole entry): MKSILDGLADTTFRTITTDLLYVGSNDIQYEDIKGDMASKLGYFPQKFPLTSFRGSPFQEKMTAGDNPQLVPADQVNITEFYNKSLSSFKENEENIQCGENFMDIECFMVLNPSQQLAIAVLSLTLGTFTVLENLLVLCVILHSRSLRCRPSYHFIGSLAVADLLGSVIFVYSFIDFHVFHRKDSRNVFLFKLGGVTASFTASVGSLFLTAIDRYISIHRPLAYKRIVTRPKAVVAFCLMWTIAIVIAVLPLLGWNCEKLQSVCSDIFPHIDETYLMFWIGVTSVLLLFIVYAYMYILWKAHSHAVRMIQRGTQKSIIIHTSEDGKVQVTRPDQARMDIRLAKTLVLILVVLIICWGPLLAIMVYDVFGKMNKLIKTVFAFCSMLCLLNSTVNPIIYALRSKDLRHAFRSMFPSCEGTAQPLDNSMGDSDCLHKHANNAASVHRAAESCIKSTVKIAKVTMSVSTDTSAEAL
Description: For agonist analysis, we monitored “evaluation of potency” (EC50) and % efficacy (Max response), which were reflected by increased intracellular cAMP levels detected in cAMP Hunter™ Gs cell lines (CHO-K1 lines) overexpressing human CNR1 (i.e., gene encoding CB1) or CNR2 (i.e., gene encoding CB2). Alternatively, antagonist activity (i.e., inhibitory concentration or IC50) utilized a cAMP Hunter™ Gi cell lines (CHO-K1 lines), detecting an intracellular reduction in cAMP levels in cells overexpressing CNR1 and CNR2. These cell lines are designed to be used in conjunction with the HitHunter® cAMP Assay Detection Kit. Specifically, for agonist assay, cells were subjected to positive controls, known to activate the increase in cAMP for both receptors (agonist control 20 µM Forskolin for CB1 and 25 µM Forskolin for CB2). […] Prior to testing the cell, plating media were exchanged with 10 uL of Assay buffer (HBSS + 10 mM HEPES). Agonist results are expressed as percent efficacy relative to the maximum response of the control ligand (%Effc or EC50), while antagonist results are expressed as percent inhibition of the control ligand (IC50) normalized to the unantagonized vehicle.

One may read the IC50 as the concentration that inhibits the measured activity by half. `Cc1c(C(=O)NN2CCOCC2)nn(-c2ccc(Cl)cc2Cl)c1-c1ccc(I)cc1` [AM281]: the IC50 came to 0.0224 µM.

These data come from article PMC9777073, “A Fenchone Derivative Effectively Abrogates Joint Damage Following Post-Traumatic Osteoarthritis in Lewis Rats” (Cells, 2022).
